Assay results published in PubChem BioAssay (NCI).
“And” between values parts separate entries of the source, which are not always exact repeats. Equal entries are not always repeated.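 How tested: cells in 96-well plates exposed to compound for 48 hours at five concentrations. GI50: concentration for 50% inhibition of growth. TGI: concentration producing complete growth inhibition.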

How the values were obtained:
MDA-N = assay: NCI tumour cell line growth inhibition, 48 h
RXF-631 renal = assay: NCI tumour cell line growth inhibition, 48 h

SMILES: Fc1cccc(Cl)c1/C=N\N=C1c2ccccc2-c2ccccc21
- TGI (MDA-N): > 100 µM

SMILES: Nc1ccc(S(=O)(=O)NCc2nccs2)cc1
- TGI (MDA-N): 54.1 µM

SMILES: O=Cc1ccc(-c2cccs2)s1
- TGI (MDA-N): > 100 µM
- TGI (RXF-631 renal): 12.9 µM

SMILES: CC1CCN(CC(=O)N2c3ccccc3Sc3cc4ccccc4cc32)CC1
- TGI (MDA-N): > 100 µM

SMILES: C=C=C(C(=O)OC)S(=O)c1ccc([N+](=O)[O-])cc1[N+](=O)[O-] (configuration not stated)
- TGI (RXF-631 renal): > 69.7 µM

SMILES: CCOC(=O)C(=O)Nc1c(C(C)C)cccc1C(C)C
- TGI (RXF-631 renal): > 100 µM

SMILES: COC(=O)c1nc(N)[nH]c(=O)c1CCCCCc1c(C(=O)OC)nc(N)[nH]c1=O
- TGI (RXF-631 renal): > 50 µM

SMILES: CCOC(=O)c1cc(/C=C/C(C)=C/C(=O)OC)n(C)c1C
- TGI (RXF-631 renal): > 100 µM

SMILES: Cn1c(=O)c2c(ncn2CN2CCN(Cn3cnc4c3c(=O)n(C)c(=O)n4C)CC2)n(C)c1=O
- TGI (MDA-N): > 100 µM

SMILES: COC1CC(OC(=O)c2ccccc2)C(OC(=O)c2ccccc2)C(C)O1 (configuration not stated)
- TGI (MDA-N): > 100 µM

SMILES: O=c1[nH]c(=O)n(C2OC3COC2C3O)cc1F (configuration not stated)
- TGI (RXF-631 renal): > 100 µM

SMILES: CCOC(=O)COS(=O)(=O)C(F)(F)F
- TGI (RXF-631 renal): > 100 µM

SMILES: C1=CC=C2NCCOCCNC3=CC=CC=CC3=NCCOCCN=C2C=C1
- TGI (RXF-631 renal): > 100 µM

SMILES: Cc1nn(-c2ccccc2)c(-c2ccccc2[N+](=O)[O-])c1CC#N
- TGI (RXF-631 renal): > 100 µM

SMILES: Cc1ccc2c(c1)C(c1cccc3ccccc13)OC2=O (configuration not stated)
- TGI (RXF-631 renal): > 100 µM

SMILES: Cc1cc(=O)oc2cc(O)c(CN(C)CC(=O)O)cc12
- TGI (MDA-N): > 100 µM

SMILES: O=C(O)CSc1ncccc1[N+](=O)[O-]
- TGI (MDA-N): > 100 µM

SMILES: CCN(CC)CCNc1n[n+]([O-])c2ccccc2[n+]1[O-]
- TGI (MDA-N): > 100 µM and 31.8 µM

SMILES: CC(C)Oc1cc(O)c2c(c1)OCC=C2CCC(=O)O
- TGI (MDA-N): 54.7 µM

SMILES: CCN(CC)c1ccc2c(c1)Nc1cc(=C(C#N)C#N)c3ccccc3c1=N2
- TGI (RXF-631 renal): > 100 µM

SMILES: Cc1c2cc[n+](C)cc2c(C)c2c1[nH]c1ccc(O)c(OCC(F)(F)F)c12
- TGI (RXF-631 renal): 15.4 µM

SMILES: OCC1OC(n2cnc3c(/C=C(/O)c4ccccc4)ncnc32)C(O)C1O (configuration not stated)
- TGI (MDA-N): > 100 µM

SMILES: O=C1NC2(CN3CCC2CC3)C(=O)N1CN(Cc1ccccc1)c1ccccc1 (configuration not stated)
- TGI (MDA-N): > 100 µM

SMILES: COc1ccc2c(c1)[n+]([O-])c(/C(C)=N/NC(=O)CC#N)c[n+]2[O-]
- TGI (RXF-631 renal): > 100 µM

SMILES: c1nnc(NCNc2nncs2)s1
- TGI (MDA-N): > 100 µM

SMILES: CCOC(=O)[C@H]1Nc2ccc(OC)cc2C2c3ccccc3CC21 (some centres not stated)
- TGI (RXF-631 renal): > 100 µM

SMILES: O=C1c2ccccc2-n2c1nc1ccccc1c2=O
- TGI (MDA-N): 32.4 µM

SMILES: Cc1ccc(S(=O)(=O)N=Nc2c(O)[nH]c3c(Cl)cc(Cl)cc23)cc1
- TGI (MDA-N): > 100 µM

SMILES: CCOC(=O)CC1NC(=O)CS1 (configuration not stated)
- TGI (RXF-631 renal): > 100 µM

SMILES: CN[C@@H]1C[C@H]2O[C@@](C)([C@@H]1OC)n1c3ccccc3c3c4c(c5c6ccccc6n2c5c31)C(=O)N[C@@H]4O
- TGI (MDA-N): 1.6 µM

SMILES: CNC(=S)N/N=C/c1ccc([N+](=O)[O-])s1
- TGI (MDA-N): > 10 µM

SMILES: CCOc1ccccc1NC(=O)CCc1nc(=S)[nH][nH]1
- TGI (RXF-631 renal): > 100 µM

SMILES: O=C1C2Cc3ccccc3CN2C(=O)N1CCN1CCCC1 (configuration not stated)
- TGI (RXF-631 renal): > 100 µM

SMILES: O=C1CCC(O)=C1O
- TGI (RXF-631 renal): > 100 µM

SMILES: CC[C@@]1(O)C(=O)OCc2c1cc1n(c2=O)Cc2cc3cc(N)ccc3nc2-1
- GI50 (MDA-N): 0.227 µM
- TGI (MDA-N): 1.4 µM and 0.27 µM
